Experiments:
MOR = settings: concentration of 100 μM; cited from earlier work
[1] = tested on: μ3 opioid receptor subtype; design: method as in PMID 15580165; settings: human monocytes; cited from earlier work
human MOR [2] = molecular target: T1, human MOR (Homo sapiens, UniProt P35372); assay: Radioligand MOR binding assay ([3H]DAMGO competition, CHO-hMOR membranes); settings: for inhibition at 10 µM: read-out: inhibition of [3H]DAMGO binding to the MOR
T1 construct: expressed in transfected cells; host or cells: CHO (Chinese hamster ovary) cells stably expressing human MOR; gift from Dr. Lawrence Toll, SRI International
T1 sequence (P35372 whole entry): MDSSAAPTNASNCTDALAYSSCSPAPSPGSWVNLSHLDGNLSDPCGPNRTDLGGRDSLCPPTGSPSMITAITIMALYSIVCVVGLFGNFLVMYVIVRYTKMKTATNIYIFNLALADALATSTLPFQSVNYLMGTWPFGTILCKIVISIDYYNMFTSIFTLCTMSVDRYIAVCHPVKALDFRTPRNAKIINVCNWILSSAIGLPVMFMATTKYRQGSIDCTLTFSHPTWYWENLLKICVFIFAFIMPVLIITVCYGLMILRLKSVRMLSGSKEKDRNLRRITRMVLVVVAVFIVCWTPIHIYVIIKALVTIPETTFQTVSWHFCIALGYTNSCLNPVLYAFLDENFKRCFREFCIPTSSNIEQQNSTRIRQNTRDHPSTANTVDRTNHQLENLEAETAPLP

human MOR [3] = molecular target: T1, human MOR; assay: cAMP accumulation assay (GloSensor) in CHO-hMOR-p22F cells; format: cell-based; settings: for inhibition of the forskolin-stimulated cAMP production: CHO-hMOR-p22F cells, agonist mode
Procedure: Inhibition of the forskolin-stimulated intracellular cAMP accumulation in CHO cells co-expressing the hMOR and the cAMP biosensor GloSensor-22F (CHO-hMOR-p22F cells) was performed using the Glo-Sensor^TM cAMP assay (Promega), according to the manufacturer’s instructions. Cells were seeded in growth medium into 384-well plates at a density of 5,000 cells in 30 μL per well and incubated overnight. On the day of assay, culture media was removed, and cells were pre-equilibrated for 90 min with 4% v/v of the GloSensor cAMP reagent in reaction medium (20 mM HEPES, 1 × HBSS, pH 7.4) at 37 °C and 5% CO2. […] Forskolin (10 μM) was added to each well, and luminescence was measured after 20 min. All experiments were performed in triplicate and repeated at least three times.

human MOR [4] = molecular target: T1, human MOR; assay: [35S]GTPγS binding assay in CHO-hMOR cell membranes; format: biochemical; settings: for stimulation of [35S]GTPγS binding: CHO-hMOR membranes, agonist mode
Procedure: Determination of [^35S]GTPγS binding to CHO-hMOR cell membranes were performed as described previously. Cell membranes (5–10 μg protein), prepared as described for the radioligand MOR binding assay, were incubated in the absence or in the presence of test compound in the assay buffer (20 mM HEPES, 100 mM NaCl, 10 mM MgCl2, pH 7.4) containing [^35S]GTPγS (0.05 nM) and GDP (10 nM) in a total volume of 1.0 mL for 60 min at 25 °C. Nonspecific binding was determined using 10 μM GTPγS, and the basal binding was determined in the absence of test compound. Samples were filtered over glass fiber filters and counted as described for the radioligand binding assays. […] The antagonist equilibrium dissociation constant Ke for 4 was calculated using the equation Ke = [a]/(DR − 1), where “a” is the concentration of antagonist. All experiments were performed in duplicate and repeated at least three times.

[5] = tested on: morphine-induced antinociception in mice; assay: Acetic acid-induced writhing test, antagonism of morphine-induced antinociception; format: in vivo, mouse; settings: s.c.
[6] = tested on: morphine-induced antinociception in mice; assay: Tail-flick test, antagonism of morphine-induced antinociception; format: in vivo, mouse
μ2 receptors = molecular target: μ2 receptors; design: method as in PMID 8069669; settings: lowering radioligand binding; cited from earlier work
mouse tail-flick test = tested on: mouse tail-flick test; design: method as in PMID 8069669; settings: cited from earlier work
μ1 receptors = molecular target: μ1 receptors; design: method as in PMID 8069669; settings: lowering radioligand binding; cited from earlier work

Row | SMILES | Ki (human MOR [2]) | inhibition at 10 µM (human MOR [2]) | inhibition of the forskolin-stimulated cAMP production (human MOR [3]) | stimulation of [35S]GTPγS binding (human MOR [4]) | further results
1 | COc1ccc(C[C@H]2c3cc(O)c(OC)cc3CCN2C)cc1O [reticuline] |  |  |  |  | % of morphine effects (MOR): ca. 16%; binding to the μ3 opioid receptor subtype [1]: no binding
2 | COc1ccc(S(=O)(=O)N2CCCN(c3c(Cl)cncc3Cl)CC2)cc1OC [Compound 5] | 7.01 µM | ≥ 50% | not effective | none of the three ligands produced any increase | 
3 | COc1cc2c(cc1OC)C(C)N(Cc1cc(C)c(O)c(C)c1)CC2 (stereo not drawn) [Compound 4] | 1.11 µM | ≥ 50% | not effective | none of the three ligands produced any increase | effect on pain behavior when administered alone (chemical sensitivity) ([5]; alone, vs. vehicle): did not affect pain behavior; reversal of morphine analgesia in the writhing test ([5]; given 30 min prior to s.c. morphine): significant and dose-dependent reversal; rightward shift in the concentration-response for DAMGO (human MOR [3]; DAMGO inhibition of forskolin-stimulated cAMP accumulation): 3 fold; Kb (human MOR [3]; read-out: Ke): 8.03 ± 0.38 µM; blockade of morphine's analgesic effect against thermal-induced nociception ([6]; 20 mg/kg s.c. pretreatment, 30 min prior to s.c. morphine): complete blockade; effect on pain behavior when administered alone (thermal sensitivity) ([6]; s.c., alone, vs. vehicle): did not affect pain behavior; Kb (human MOR [4]; read-out: antagonist equilibrium constant (Ke)): 1020 ± 250 nM
4 | COc1ccc(CC2c3cc(OC)c(OC)cc3CCN2C)cc1OC (stereo not drawn) [Laudanosine] |  |  |  |  | Ki (μ2 receptors): 13 µM; antinociceptive effects (mouse tail-flick test): exert antinociceptive effects; Ki (μ1 receptors): 2700 nM
5 | Cc1c(NC(=O)c2ccc(Cl)cc2)cc(-c2ccccc2)n1CCCN1CCOCC1 [Compound 3] | 10.7 µM | ≥ 50% | not effective | none of the three ligands produced any increase | 

From publication PMC4757823, “μ Opioid receptor: novel antagonists and structural modeling” (Scientific Reports, 2016)
